Experimental data from patent US7423015B1, “Antihelminthic drugs as a treatment for hyperproliferative diseases” (Board of Regents, The University of Texas System, priority 2001, dated 2008).

Experiments:
A549 lung cancer cells = test: Apoptotic cells by TdT-FACS analysis; format: cell-based, human
Procedure: Approximately 10^4 cells were seeded on tissue culture plates 24 h before drug treatment or adenoviral infection. […] FIG. 4C—A549 lung cancer cells were examined for apoptotic cell death 48 h after FZ and Ad5p53 treatment alone or in combination. Percent apoptotic cells were measured by TdT-FACS analysis.
For TdT FACS analysis control and treated cells were collected by trypsinization, washed in PBS, and fixed overnight in 70% ethanol. The next day, cells were rehydrated in PBS for 30 min, centrifuged, and resuspended in PBS. For DNA analysis, propidium iodide (PI) was added at 50 μg/ml, and the cells were incubated in the presence of RNase A (15 mg/ml for 30 min at 37° C.). To detect DNA strand breaks associated with apoptosis, cells were fixed in 1% formaldehyde for 15 min at 4° C., rinsed in PBS, and stored at 4° C. in ice-cold 70% ethanol. Before staining, the cells were washed in PBS, and 10^6 cells were resuspended in 50 ml of cacodylated buffer containing 100 μ/ml TdT enzyme and 0.5 nM biotin-16 dUTP for 30 min at 37° C. Cells were washed in PBS and resuspended in 100 ml of 4×SSC containing 2.5 mg/ml fluoresceinated avidin, 0.1% Triton X-100, and 5% dry fat milk and then incubated at room temperature for 30 min in the dark. […] Flow cytometry was carried out in a fluorescence-activated cell sorter (Epics Elite; Coulter, Inc., Hialeah, Fla.).

normal fibroblast = test: In vitro proliferation assay with MZ, cell count; format: cell-based, human; conditions: 24 h treatment
Procedure: Cells of the human non-small cell lung cancer (NSCLC) cell line A549, WI-38 normal fibroblast (American Type Culture Collection, Rockville, Md.) and H460 (a gift from Drs. Adi Gazdar and John Minna. University of Texas Southwestern Medical Center, Dallas) were seeded on culture plates (2×10^4 cells/well) in F12 and RPMI medium, respectively, supplemented with 10% heat-inactivated fetal calf serum and antibiotics. HUVEC were grown in medium supplemented with growth factor (Clonetics, San Diego). The cells were then exposed to MZ dissolved in dimethyl sulfoxide (DMSO) when grown to 40-50% confluence. Cell growth was monitored by counting the cells using a hemocytometer.
Initially, the inventors examined the effect of MZ on proliferation of human lung cancer cell lines (H460 and A549) in vitro.

[1] = tested on: tumor vascularity of H460 xenografts (CD31); test: Immunohistochemical analysis of CD31 in H460 tumors; format: in vivo, nu/nu mice; conditions: H460 xenografts in nude mice
Procedure: Subcutaneous H460 tumors established in nu/nu mice that were either not treated or treated with MZ were harvested and fixed in 4% buffered formalin, paraffin embedded, and cut as […] thick sections. Tissue sections were stained for CD31 expression using rat anti-mouse CD31 antibody (Pharmingen) as previously described with slight modifications. Briefly, following deparafinzation and rehydration, tissue sections were treated with 0.3% H2O2 in methanol for 30 min to block endogenous peroxidase activity and were subsequently incubated with normal rat serum for 30 min at room temperature. Following incubation, slides were treated with protease for 15 min followed with rat monoclonal anti-CD31 antibody (1:1000 dilution) for 60 minutes. After 30 min incubation with anti-rat secondary antibody (provided with ABC kit, Vector) CD31 in tissues was detected with DAB by enhancement with avidin-biotin reaction ABC kit. The slides were counterstained with hematoxylin and then mounted with Aqua-mount (Lerner Labs, Pittsburgh, Pa.). The number of vascular areas staining positive for CD31 were analyzed under bright-field microscopy. A total of at least five fields per specimen were analyzed. In all the staining procedures, appropriate negative controls were included. […]

| SMILES | apoptotic cells (A549 lung cancer cells; 48 h after combination treatment FZ and Ad5p53) [%] | apoptotic cells (A549 lung cancer cells; FZ treatment alone) [%] | effect on growth of normal fibroblast (normal fibroblast) | neovascularization (blood vessel density, CD31) [1] |
| --- | --- | --- | --- | --- |
| COC(=O)Nc1nc2ccc(Sc3ccccc3)cc2[nH]1 [Fenbendazole, methy 5-(phenylthio)-2-benzimidazole-2-carbamate] | 30 | 11 |  |  |
| COC(=O)Nc1nc2ccc(C(=O)c3ccccc3)cc2[nH]1 [Mebendazole, Methyl 5-benzoylbenzimidazole-2-carbamate] |  |  | no effect | profoundly reduced |
